# In patent US4470840A, “1-Triacontanol plant growth stimulator formulations” (Biochemical Research Corporation, priority 1981, dated 1984):
# Legend:
# Assay type in all cases: in vivo
# [1] = tested on: Field Corn Seedlings (cv. Trojan TXS 94, Pioneer 3780, WF9 X Bear 38); experiment: Greenhouse trial: dry weight and water uptake of seedlings after foliar spraying; conditions: for Dry wt. increase: 1-triacontanol 0.1 mg/liter
# Description: (§1) In general, greenhouse trials were conducted as follows: eight to twelve seeds were sown per pot in Peat-Lite® Mix and received an average of 100 ml of water per day. After plants had the third true leaf (average), the various formulations were applied to the leaves as a fine mist at air temperatures listed in Table 1. Temperatures above 20° C., preferably 25°-30° C., are preferred.
# (§2) The 1-triacontanol formulation most generally used consisted of a concentrate containing 5 mg of 1-triacontanol dissolved in 1 liter of acetone, with 20 ml of the concentrate being further dissolved to 1 liter with water having a pH between 8 and 10, with over a pH of 11 also being effective. The pH was adjusted with aqueous NaOH and the concentrate added just prior to spraying.
# (§3) When other plant growth substances were added to the formulations, these were added either to the concentrate in the polar organic solvent or alternatively in the aqueous solution, depending on the solubility of the plant growth substance. All metal salts were added to the water used to spray the 1-triacontanol formulations. After spraying, preferably about four to nine days or more, plants were harvested with roots, and fresh weights were obtained. Plants were then dried in an oven, preferably at a temperature below 100° C., until constant weight was obtained, and dry weight values were obtained for each plot. Subtraction of the dry weights from the fresh weights gave the water uptake weights (water content) of each plot. The weights of the above mentioned seedlings were compared to the control weights to obtain the percent increases.
# (§4) It is particularly advantageous to arrange each of the potted plants in size range categories corresponding to the number of replications used. For example, if five replications are employed, plants are divided into five size categories, normally measured by the height of the plants. Treatments are then assigned randomly within each block (size category). This removes the variation due to plant size for statistical purposes, as is well practiced in the art. The resulting data is analyzed using any appropriate means, which may include the least significant difference method (L.S.D. method), Duncan's multiple range test, as used here (Biometrics, 11: 1 (1955)), or other means.
# [2] = tested on: Hybrid Sweet Corn Seedlings (cv. Silver Queen); experiment: as above; conditions: for % increase (dry weight) / % increase (water uptake) / Dry weight / Water uptake: metal ion 9 mM (none in the last line) with 1-triacontanol 0.1 mg/liter, pH 8 to 10; for Dry weight: control 0.86 g; for Water uptake: control 8.7 g; for Increase in dry weight: 1-triacontanol 0.1 mg/liter, additive 9 mM (none in the last line)
# Description: as §1, §2, §3, §4
# [3] = tested on: Hybrid Sweet Corn Seedlings (cv. Silver Queen); experiment: Lengths of stems and total plant length of seedlings sprayed Day 7; conditions: T = 1-triacontanol 0.1 mg/liter; for Length "a" (stem to the first leaf): control 11.5 cm; for Length "b" (total plant length): control 25.0 cm
# [4] = cv. Trojan TXS 94, metal salt 1 mM (1 ea. for the mixture), Formulation 4
# [5] = 14-day old seedlings, metal salt 10 mM, with 1-triacontanol 0.1 mg/liter, Formulation 4
# [6] = 14-day old seedlings, metal salt 10 mM, without 1-triacontanol, Formulation 4
# [7] = 14-day old seedlings, Formulation 4
# [8] = 14-day old seedlings, plant growth substance 0.01 mM, with 1-triacontanol 0.1 mg/liter
# [9] = 14-day old seedlings, plant growth substance 0.01 mM, without 1-triacontanol
# [10] = plant growth substance 0.04 mM, CaCl2 10 mM, 1-triacontanol 0.5 mg per liter, pH 8
# [11] = plant growth substance 0.04 mM, CaCl2 50 mM, 1-triacontanol 0.5 mg per liter, pH 8
# [12] = 14-day old seedlings, metal salt 1 mM (1 ea. for the mixture), with 1-triacontanol 0.1 mg/liter, Formulation 4
# [13] = plant growth substance 0.01 mM, CaCl2 10 mM, 1-triacontanol 0.5 mg per liter, pH 8
# [14] = plant growth substance 0.01 mM, CaCl2 50 mM, 1-triacontanol 0.5 mg per liter, pH 8
# [15] = 14-day old seedlings, plant growth substance 0.10 mM, with 1-triacontanol 0.1 mg/liter
# [16] = 14-day old seedlings, plant growth substance 0.10 mM, without 1-triacontanol
# [17] = plant growth substance 0.001 mM, CaCl2 50 mM, 1-triacontanol 0.5 mg per liter, pH 8
# [18] = plant growth substance 0.10 mM, CaCl2 50 mM, 1-triacontanol 0.5 mg per liter, pH 8
# [19] = 14-day old seedlings, metal salt 5 mM, with 1-triacontanol 0.1 mg/liter, Formulation 4
# [20] = 14-day old seedlings, metal salt 5 mM, with 1-triacontanol 0.1 mg/liter, Formulation 11 (chloroform, Tween-20)
# [21] = 14-day old seedlings, metal salt 10 mM, with 1-triacontanol 0.1 mg/liter, Formulation 11 (chloroform, Tween-20)
# [22] = cv. Trojan TXS 94, brassinosteroid 0.4 μM w/o triacontanol, Formulation 7
# [23] = cv. Trojan TXS 94, brassinosteroid 0.4 μM with 1-triacontanol 0.5 mg/liter containing 10 mM CaCl2, Formulation 7
smiles,measurement,setting,value
[Cl][La]([Cl])[Cl] [LaCl3],Dry wt. increase,[1]; [4],25-30%
same,"Increases, dry wt.",[2]; [5],+72%
same,"Increases, H2O uptake",[2]; [6],-2%
same,"Increases, dry wt.",[2]; [6],+5%
[Zn+2] [Zn^+2],% increase (dry weight),[2]; [7],+38%
same,% increase (water uptake),[2]; [7],+21%
same,Dry weight,[2]; [7],1.17 g
same,Water uptake,[2]; [7],10.5 g
"C=C1C[C@]23C[C@@]1(O)CC[C@H]2[C@@]12C=C[C@H](O)[C@@](C)(C(=O)O1)[C@H]2[C@@H]3C(=O)O [GA3, gibberellic acid, reference compound]","Increase in length ""a""",[3],-3%
same,"Increase in length ""b""",[3],+6%
same,"Length ""a"" (stem to the first leaf)",[3],11.2 cm
same,"Length ""b"" (total plant length)",[3],26.6 cm
same,"Increases, H2O uptake",[2]; [8],-3%
same,"Increases, dry wt.",[2]; [8],-15%
same,"Increases, H2O uptake",[2]; [9],-6%
same,"Increases, dry wt.",[2]; [9],-24%
same,"Increases, H2O uptake",[2]; [10],+15%
same,"Increases, dry wt.",[2]; [10],+16%
same,"Increases, H2O uptake",[2]; [11],+13%
same,"Increases, dry wt.",[2]; [11],+22%
[Mg+2] [Mg^+2],% increase (dry weight),[2]; [7],+73%
same,% increase (water uptake),[2]; [7],+55%
same,Dry weight,[2]; [7],1.49 g
same,Water uptake,[2]; [7],13.5 g
[Cd+2] [Cd^+2],% increase (dry weight),[2]; [7],+58%
same,% increase (water uptake),[2]; [7],+14%
same,Dry weight,[2]; [7],1.36 g
same,Water uptake,[2]; [7],9.9 g
[Ca+2] [Ca^+2],% increase (dry weight),[2]; [7],+50%
same,% increase (water uptake),[2]; [7],+16%
same,Dry weight,[2]; [7],1.29 g
same,Water uptake,[2]; [7],10.1 g
"N.N.N.N.N.N.[Cl-].[Cl-].[Cl-].[Co+3] [Co(NH3)6 Cl3, reference compound]",Increase in dry weight,[2]; Formulation 4,+13%
[Sr+2] [Sr^+2],% increase (dry weight),[2]; [7],+81%
same,% increase (water uptake),[2]; [7],+48%
same,Dry weight,[2]; [7],1.56 g
same,Water uptake,[2]; [7],12.9 g
[Pb+2] [Pb^+2],% increase (dry weight),[2]; [7],+81%
same,% increase (water uptake),[2]; [7],+55%
same,Dry weight,[2]; [7],1.56 g
same,Water uptake,[2]; [7],13.5 g
[Cl][Mn][Cl] [MnCl2],"Increases, H2O uptake",[2]; [12],+29%
same,"Increases, dry wt.",[2]; [12],+9%
"CC(C)CC(N)C(=O)[O-].CC(C)CC(N)C(=O)[O-].[Ca+2] (stereo not shown) [Metal Proteinate, reference compound]",Increase in dry weight,[2]; Formulation 4,+15%
"O=C(O)COc1ccc(Cl)cc1Cl [2,4-D, 2,4-dichlorophenoxyacetic acid, reference compound]","Increases, H2O uptake",[2]; [8],-13%
same,"Increases, dry wt.",[2]; [8],+17%
same,"Increases, H2O uptake",[2]; [9],-9%
same,"Increases, dry wt.",[2]; [9],+10%
same,Increase in dry weight over controls,"[2]; formulations containing metal ions and synthetic auxin, cv. Silver Queen",100%
"c1coc(CNc2ncnc3nc[nH]c23)c1 [Kinetin, 6-furfurylamino purine, reference compound]","Increase in length ""a""",[3],0%
same,"Increase in length ""b""",[3],+30%
same,"Length ""a"" (stem to the first leaf)",[3],11.5 cm
same,"Length ""b"" (total plant length)",[3],32.5 cm
same,"Increases, H2O uptake",[2]; [8],+14%
same,"Increases, dry wt.",[2]; [8],-21%
same,"Increases, H2O uptake",[2]; [9],-3%
same,"Increases, dry wt.",[2]; [9],-24%
same,"Increases, H2O uptake",[2]; [13],+13%
same,"Increases, dry wt.",[2]; [13],+3%
same,"Increases, H2O uptake",[2]; [14],-2%
same,"Increases, dry wt.",[2]; [14],+1%
O=S(=O)([O-])[O-].O=S(=O)([O-])[O-].[Ce+4] [Ce(SO4)2],"Increases, H2O uptake",[2]; [12],+26%
same,"Increases, dry wt.",[2]; [12],+21%
"O=c1ccc(=O)[nH][nH]1 [MH, maleic hydrazide, reference compound]","Increases, H2O uptake",[2]; [15],-7%
same,"Increases, dry wt.",[2]; [15],+12%
same,"Increases, H2O uptake",[2]; [16],-1%
same,"Increases, dry wt.",[2]; [16],+7%
"O=C(O)Cc1c[nH]c2ccccc12 [IAA, indole-3-acetic acid, reference compound]","Increase in length ""a""",[3],0%
same,"Increase in length ""b""",[3],-2%
same,"Length ""a"" (stem to the first leaf)",[3],11.6 cm
same,"Length ""b"" (total plant length)",[3],24.4 cm
same,"Increases, H2O uptake",[2]; [8],-5%
same,"Increases, dry wt.",[2]; [8],+2%
same,"Increases, H2O uptake",[2]; [9],-7%
same,"Increases, dry wt.",[2]; [9],+4%
same,"Increases, H2O uptake",[2]; [17],+18%
same,"Increases, dry wt.",[2]; [17],+37%
same,"Increases, H2O uptake",[2]; [14],+25%
same,"Increases, dry wt.",[2]; [14],+56%
same,"Increases, H2O uptake",[2]; [18],+14%
same,"Increases, dry wt.",[2]; [18],+36%
[Ca+2].[Cl-].[Cl-] [CaCl2],Dry wt. increase,"[1]; cv. Pioneer 3780, metal salt 0 mM, Formulation 11",-5%
same,Dry wt. increase,"[1]; cv. Pioneer 3780, metal salt 1 mM, Formulation 4",+19%
same,Dry wt. increase,"[1]; cv. Pioneer 3780, metal salt 7.5 mM, Formulation 4, NAA 1.0 μM",+32%
same,Dry wt. increase,"[1]; cv. Trojan TXS 94, metal salt 0.5 mM, Formulation 4",+22%
same,Dry wt. increase,[1]; [4],20-30%
same,Dry wt. increase,"[1]; cv. Trojan TXS 94, metal salt 1 mM, Formulation 11",-10%
same,Dry wt. increase,"[1]; cv. Trojan TXS 94, metal salt 1.25 mM, Formulation 4",+30%
same,Dry wt. increase,"[1]; cv. Trojan TXS 94, metal salt 5 mM, Formulation 7, 2,4,5-T 10.0 μM",+22%
same,Dry wt. increase,"[1]; cv. Trojan TXS 94, metal salt 5 mM, Formulation 7, 2,4-D 10.0 μM",+23%
same,Dry wt. increase,"[1]; cv. Trojan TXS 94, metal salt 6 mM, Formulation 7, NAA 1.0 μM",+28%
same,Dry wt. increase,"[1]; cv. Trojan TXS 94, metal salt 3-5 mM, Formulation 7, IAA 10.0 μM",20-30%
same,Dry wt. increase,"[1]; cv. WF9 X Bear 38, metal salt 1 mM, Formulation 4",+8%
same,Increase in dry weight,[2]; Formulation 4,+50%
same,"Increases, H2O uptake",[2]; [12],+35%
same,"Increases, dry wt.",[2]; [12],+42%
same,"Increases, H2O uptake",[2]; [19],+21%
same,"Increases, dry wt.",[2]; [19],+50%
same,"Increases, H2O uptake",[2]; [20],+6%
same,"Increases, dry wt.",[2]; [20],+5%
same,"Increases, H2O uptake",[2]; [5],+11%
same,"Increases, dry wt.",[2]; [5],+65%
same,"Increases, H2O uptake",[2]; [21],+9%
same,"Increases, dry wt.",[2]; [21],-5%
same,"Increases, H2O uptake",[2]; [6],-2%
same,"Increases, dry wt.",[2]; [6],+4%
[Mn+2] [Mn^+2],% increase (dry weight),[2]; [7],+31%
same,% increase (water uptake),[2]; [7],+25%
same,Dry weight,[2]; [7],1.13 g
same,Water uptake,[2]; [7],10.9 g
[Cl-].[Cl-].[Mg+2] [MgCl2],"Increases, H2O uptake",[2]; [12],+20%
same,"Increases, dry wt.",[2]; [12],+21%
"CC(C)[C@@H](C)[C@H](O)[C@@H](O)[C@@H](C)[C@H]1CC[C@H]2[C@@H]3COC(=O)[C@H]4C[C@H](O)[C@H](O)C[C@]4(C)[C@H]3CC[C@]12C [Brassinosteroid, 2α,3α,22α,23α-tetrahydroxy-24α-methyl-B-hoo-5α-cholestan-6-one, reference compound]","Increases, dry wt.",[1]; [22],+11%
same,"Increases, water uptake",[1]; [22],+8%
same,"Increases, dry wt.",[1]; [23],+19%
same,"Increases, water uptake",[1]; [23],+10%
[Ba+2] [Ba^+2],% increase (dry weight),[2]; [7],+35%
same,% increase (water uptake),[2]; [7],+48%
same,Dry weight,[2]; [7],1.16 g
same,Water uptake,[2]; [7],12.9 g
"O=C(O)c1cc(I)cc(I)c1I [TIBA, 2,3,5-triiodobenzoic acid, reference compound]","Increases, H2O uptake",[2]; [15],+1%
same,"Increases, dry wt.",[2]; [15],+19%
same,"Increases, H2O uptake",[2]; [16],-12%
same,"Increases, dry wt.",[2]; [16],+10%
